Read-outs that look alike come from different tables or passages of the source.
Experiments:
Rhesus PDE2A3 = Rhesus PDE2A3 (Macaca mulatta, UniProt B3VTJ2); test: PDE2 fluorescence polarization (IMAP FP) inhibition assay, rhesus enzyme; assay type: biochemical, rhesus macaque
In short: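 IMAP FP (mP from parallel and perpendicular fluorescence against substrate-only control) was read ≥1 h after adding binding reagent. The preceding 60 min room-temperature reaction contained FAM-cAMP (50 nM) and cGMP (1 uM) in pH 7.2 Tris buffer with MgCl2 and DTT. Enzyme was supernatant of sonicated AD293 cells expressing rhesus PDE2A3; compounds were 3-fold titrated, DMSO 1% final.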

human PDE2A1 = human PDE2A1 (Homo sapiens (Human), UniProt O00408); test: IMAP FP PDE selectivity panel, human PDE2A1; assay type: biochemical
In short: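 IMAP FP format: substrate 50 nM FAM-cAMP plus 1000 nM cGMP, enzyme (insect-cell GST-tagged human PDE2A1) at ~20% conversion, 60 min reaction at room temperature. Apparent inhibition constants calculated from parallel/perpendicular fluorescence with KM 10,000 nM.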

[1] = Rhesus PDE2, Lab B, read-out: Rhesus PDE2 Ki (nM) - Lab B
[2] = Human PDE2, Lab B, read-out: Human PDE2 Ki (nM) - Lab B
[3] = Rhesus PDE2, Lab A, read-out: Rhesus PDE2 Ki (nM) - Lab A
[4] = Human PDE2, Lab A, read-out: Human PDE2 Ki (nM) - Lab A

Sequence of Rhesus PDE2A3 (B3VTJ2 1-941): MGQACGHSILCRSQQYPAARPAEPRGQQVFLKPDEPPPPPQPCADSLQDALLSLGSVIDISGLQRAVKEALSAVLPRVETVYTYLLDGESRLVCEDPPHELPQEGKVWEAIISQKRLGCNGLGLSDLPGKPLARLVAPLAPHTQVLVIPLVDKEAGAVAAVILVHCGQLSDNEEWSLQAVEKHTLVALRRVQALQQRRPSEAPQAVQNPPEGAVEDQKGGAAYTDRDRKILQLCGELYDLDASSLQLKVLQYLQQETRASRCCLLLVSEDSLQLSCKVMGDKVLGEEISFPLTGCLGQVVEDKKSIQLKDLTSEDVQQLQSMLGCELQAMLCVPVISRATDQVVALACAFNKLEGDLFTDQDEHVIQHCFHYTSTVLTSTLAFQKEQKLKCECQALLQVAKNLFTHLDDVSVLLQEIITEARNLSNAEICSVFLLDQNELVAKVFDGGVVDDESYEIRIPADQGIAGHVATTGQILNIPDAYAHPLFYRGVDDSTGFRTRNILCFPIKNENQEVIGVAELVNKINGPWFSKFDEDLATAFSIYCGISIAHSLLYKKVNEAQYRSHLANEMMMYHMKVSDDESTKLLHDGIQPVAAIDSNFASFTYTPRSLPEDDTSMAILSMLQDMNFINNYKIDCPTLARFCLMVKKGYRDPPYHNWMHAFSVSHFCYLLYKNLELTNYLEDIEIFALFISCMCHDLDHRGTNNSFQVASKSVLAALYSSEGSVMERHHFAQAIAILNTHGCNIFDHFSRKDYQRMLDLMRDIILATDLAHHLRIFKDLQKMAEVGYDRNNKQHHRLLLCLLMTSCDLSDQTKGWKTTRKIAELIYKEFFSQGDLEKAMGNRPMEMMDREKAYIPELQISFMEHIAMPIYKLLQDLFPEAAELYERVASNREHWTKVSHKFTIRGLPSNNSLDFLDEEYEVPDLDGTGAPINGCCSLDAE
Sequence of human PDE2A1 (O00408 other isoform, or with tags, fused parts or gaps): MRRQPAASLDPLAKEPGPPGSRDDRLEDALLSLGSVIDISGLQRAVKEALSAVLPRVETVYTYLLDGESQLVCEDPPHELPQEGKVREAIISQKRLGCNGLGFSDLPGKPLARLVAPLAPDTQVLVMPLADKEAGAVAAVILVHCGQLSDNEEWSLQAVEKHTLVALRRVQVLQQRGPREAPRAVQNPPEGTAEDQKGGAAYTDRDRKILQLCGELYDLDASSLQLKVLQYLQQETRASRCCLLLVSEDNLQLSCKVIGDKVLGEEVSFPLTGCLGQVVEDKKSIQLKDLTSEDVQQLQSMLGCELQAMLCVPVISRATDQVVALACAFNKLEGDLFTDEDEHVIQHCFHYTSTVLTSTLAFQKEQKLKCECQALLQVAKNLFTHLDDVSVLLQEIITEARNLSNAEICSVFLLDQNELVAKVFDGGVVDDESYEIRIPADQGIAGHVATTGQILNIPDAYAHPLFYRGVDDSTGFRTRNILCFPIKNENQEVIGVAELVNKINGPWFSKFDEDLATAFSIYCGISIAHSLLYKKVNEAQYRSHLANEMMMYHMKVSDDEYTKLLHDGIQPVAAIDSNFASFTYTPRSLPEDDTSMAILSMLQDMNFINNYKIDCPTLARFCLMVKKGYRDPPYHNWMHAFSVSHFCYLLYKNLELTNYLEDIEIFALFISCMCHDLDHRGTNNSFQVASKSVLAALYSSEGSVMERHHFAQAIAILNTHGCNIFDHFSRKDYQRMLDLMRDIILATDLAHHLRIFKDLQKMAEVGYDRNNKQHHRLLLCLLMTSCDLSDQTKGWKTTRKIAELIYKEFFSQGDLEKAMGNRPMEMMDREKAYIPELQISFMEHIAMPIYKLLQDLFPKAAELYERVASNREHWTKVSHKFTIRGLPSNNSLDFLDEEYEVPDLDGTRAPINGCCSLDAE

SMILES	Ki (Rhesus PDE2A3; [1]) [nM]	Ki (human PDE2A1; [2]) [nM]	Ki (Rhesus PDE2A3; [3]) [nM]	Ki (human PDE2A1; [4]) [nM]
C[C@@H](NC(=O)c1cc(=O)[nH]c(-c2ccccc2)n1)c1ccc(C(F)(F)F)c(F)c1F [Example 408, N-{(1R)-1-[2,3-difluoro-4-(trifluoromethyl)phenyl]ethyl}-6-oxo-2-phenyl-1,6-dihydropyrimidine-4-carboxamide]	17	11	–	–
COc1ccc(Cc2nc(C(=O)N[C@@H](c3ccc(C(F)(F)F)c(F)c3)C(C)(C)C)cc(=O)[nH]2)cc1 [Example 466, N-{(1R)-1-[3-fluoro-4-(trifluoromethyl)phenyl]-2,2-dimethylpropyl}-2-(4-methoxybenzyl)-6-oxo-1,6-dihydropyrimidine-4-carboxamide]	0.85	0.79	–	–
CC(C)(NC(=O)c1cc(=O)[nH]c(-c2ncccn2)n1)c1ccc(C(F)(F)F)c(F)c1 [Example 82, N-{1-[3-fluoro-4-(trifluoromethyl)phenyl]-1-methylethyl}-6-oxo-1,6-dihydro-2,2′-bipyrimidine-4-carboxamide]	–	–	153	82
Cc1nc(C(=O)N[C@H](C)c2ccc(C3CC3)c(F)c2)cc(=O)[nH]1 [Example 620, N-[(1R)-1-(4-cyclopropyl-3-fluorophenyl)ethyl]-2-methyl-6-oxo-1,6-dihydropyrimidine-4-carboxamide]	15	19	–	–
CC(C)(C)[C@@H](NC(=O)c1cc(=O)[nH]c(C2CC2)n1)c1ccc(C(F)(F)F)c(F)c1 [Example 438, 2-cyclopropyl-N-{(1R)-1-[3-fluoro-4-(trifluoromethyl)phenyl]-2,2-dimethylpropyl}-6-oxo-1,6-dihydropyrimidine-4-carboxamide]	1.5	1.3	–	–
CC(NC(=O)c1cc(=O)[nH]c(C2CC2)n1)c1ccc(C(F)(F)F)cc1Cl (stereo not drawn) [Example 233, N-{1-[2-chloro-4-(trifluoromethyl)phenyl]ethyl}-2-cydopropyl-6-oxo-1,6-dihydropyrimidine-4-carboxamide]	–	–	124	78
Cc1nc(C(=O)N[C@@H](c2ccc(C3CC3)cc2)C(C)(C)C)cc(=O)[nH]1 [Example 63, (R)-N-(1-(4-cyclopropylphenyl)-2,2-dimethylpropyl)-2-methyl-6-oxo-1,6-dihydropyrimidine-4-carboxamide]	1.9	2	–	–
O=C(N[C@@H](c1ccc(OC(F)(F)F)cc1)C1CC1)c1cc(=O)[nH]c(-c2ncccn2)n1 [Example 92, N-{(R)-cyclopropyl[4-(trifluoromethoxy)phenyl]methyl}-6-oxo-1,6-dihydro-2,2′-bipyrimidine-4-carboxamide]	–	–	91	21
Cc1nc(C(=O)NC(C)c2ccc(C(C)C)cc2)cc(=O)[nH]1 (single isomer, unassigned) [Example 305, (R)- or (S)-2-methyl-N-{1-[4-(1-methylethyl)phenyl]ethyl}-6-oxo-1,6-dihydropyrimidine-4-carboxamide]	–	–	26	20
COc1ccc(Cc2nc(C(=O)N[C@@H](c3ccc(OC(F)(F)F)c(F)c3)C(C)(C)C)cc(=O)[nH]2)cc1F [Example 506, 2-(3-fluoro-4-methoxybenzyl)-N-{(1R)-1-[3-fluoro-4-(trifluoromethoxy)phenyl]-2,2-dimethylpropyl}-6-oxo-1,6-dihydropyrimidine-4-carboxamide]	0.92	0.8	–	–
CC(C)(NC(=O)c1cc(=O)[nH]c(-c2ccccc2)n1)c1ccc(SC(F)(F)F)c(F)c1 [Example 361, N-(1-{3-fluoro-4-[(trifluoromethyl)sulfanyl]phenyl}-1-methylethyl)-6-oxo-2-phenyl-1,6-dihydropyrimidine-4-carboxamide]	99	81	~78	–
CC(C)(C)[C@@H](NC(=O)c1cc(=O)[nH]c(C2CC2)n1)c1ccc(OC(F)F)cc1 [Example 436, 2-cyclopropyl-N-{(1R)-1-[4-(difluoromethoxy)phenyl]-2,2-dimethylpropyl}-6-oxo-1,6-dihydropyrimidine-4-carboxamide]	3.5	3.2	–	–
C[C@@H](NC(=O)c1cc(=O)[nH]c(C2CC2)n1)c1ccc(C(F)(F)F)cc1F [Example 237, 2-cyclopropyl-N-{(1R)-1-[2-fluoro-4-(trifluoromethyl)phenyl]ethyl}-6-oxo-1,6-dihydropyrimidine-4-carboxamide]	–	–	61	35
Cc1nc(C(=O)NC(C)(C)c2ccc(C(F)(F)F)cc2F)cc(=O)[nH]1 [Example 596, N-{1-[2-fluoro-4-(trifluoromethyl)phenyl]-1-methylethyl}-2-methyl-6-oxo-1,6-dihydropyrimidine-4-carboxamide]	30	22	–	–
Cc1nc(C(=O)N[C@H](C)c2ccc(-c3ccc(F)cc3)cc2)cc(=O)[nH]1 [Example 322, N-[(1R)-1-(4′-fluorobiphenyl-4-yl)ethyl]-2-methyl-6-oxo-1,6-dihydropyrimidine-4-carboxamide]	–	–	205	171
COc1cc(OC(F)(F)F)ccc1C(C)NC(=O)c1cc(=O)[nH]c(-c2ccccc2)n1 (stereo not drawn) [Example 387, N-{1-[2-methoxy-4-(trifluoromethoxy)phenyl]ethyl}-6-oxo-2-phenyl-1,6-dihydropyrimidine-4-carboxamide]	9.6	8.1	–	–
Cc1nc(C(=O)NC2(c3ccc(C(F)(F)F)cc3)CCCC2)cc(=O)[nH]1 [Example 270, 2-methyl-6-oxo-N-{1-[4-(trifluoromethyl)phenyl]cyclopentyl}-1,6-dihydropyrimidine-4-carboxamide]	–	–	225	113
Cc1nc(C(=O)NC2(c3ccc(OC(F)(F)F)cc3)CCC2)cc(=O)[nH]1 [Example 269]	–	96	158	118
Cc1nc(C(=O)N[C@H](C)c2cc(F)c(C(F)(F)F)c(F)c2)cc(=O)[nH]1 [Example 26, N-{(1R)-[3,5-difluoro-4-(trifluoromethyl)phenyl]ethyl}-2-methyl-6-oxo-1,6-dihydropyrimidine-4-carboxamide]	–	–	231	104
O=C(NC1(c2ccc(OC(F)(F)F)cc2)CCC1)c1cc(=O)[nH]c(-c2ccccc2)n1 [Example 282]	–	–	124	61

Other lines, results leading:

Ki (Rhesus PDE2A3; [1]) [nM]	Ki (human PDE2A1; [2]) [nM]	Ki (Rhesus PDE2A3; [3]) [nM]	Ki (human PDE2A1; [4]) [nM]	SMILES
6	6.4	5.1	–	Cc1nc(C(=O)N[C@@H](c2ccc(S(F)(F)(F)(F)F)cc2)C(C)C)cc(=O)[nH]1 [Example 52, 2-methyl-N-{(1R)-2-methyl-1-[4-(pentafluoro-λ^6-sulfanyl)phenyl]propyl}-6-oxo-1,6-dihydropyrimidine-4-carboxamide]
–	–	6.4	4.1	C[C@@H](NC(=O)c1cc(=O)[nH]c(-c2ccccc2)n1)c1ccc(CC(F)(F)F)cc1 [Example 183, 6-oxo-2-phenyl-N-{(1R)-1-[4-(2,2,2-trifluoromethyl)phenyl]ethyl}-1,6-dihydropyrimidine-4-carboxamide]
41	39	19	–	Cc1nc(C(=O)N[C@H](C)c2ccc(C3CC3)cc2)cc(=O)[nH]1 [Example 258, N-[(1R)-1-(4-cyclopropylphenyl)ethyl]-2-methyl-6-oxo-1,6-dihydropyrimidine-4-carboxamide]
3.4	3.5	2	–	CC(C)[C@@H](NC(=O)c1cc(=O)[nH]c(-c2ncccn2)n1)c1ccc(C(F)(F)F)c(F)c1 [Example 248, N-{(1R)-1-[3-fluoro-4-(trifluoromethyl)phenyl]-2-methylpropyl}-6-oxo-1,6-dihydro-2,2′-bipyrimidine-4-carboxamide]
4.7	4.9	3.7	–	CC(C)(C)[C@@H](NC(=O)c1cc(=O)[nH]c(-c2ncccn2)n1)c1ccc(C(F)(F)F)cc1 [Example 255, N-{(1R)-2,2-dimethyl-1-[4-(trifluoromethyl)phenyl]propyl}-6-oxo-1,6-dihydro-2,2′-bipyrimidine-4-carboxamide]
18	20	18	~6.1	CC[C@@H](NC(=O)c1cc(=O)[nH]c(C)n1)c1ccc(S(F)(F)(F)(F)F)cc1 [Example 51, 2-methyl-6-oxo-N-{(1R)-1-[4-(pentafluoro-λ^6-sulfanyl)phenyl]propyl}-1,6-dihydropyrimidine-4-carboxamide]
–	–	9.2	5.2	Cc1nc(C(=O)N[C@@H](c2ccc(SC(F)(F)F)cc2)C2CC2)cc(=O)[nH]1 [Example 41, N-[(R)-cyclopropyl{4-[(trifluoromethyl)sulfanyl]phenyl}methyl]-2-methyl-6-oxo-1,6-dihydropyrimidine-4-carboxamide]
1.8	1.8	1	–	C[C@@H](NC(=O)c1cc(=O)[nH]c(-c2ncccn2)n1)c1ccc(SC(F)(F)F)c(F)c1 [Example 260, N-[(1R)-1-{3-fluoro-4-[(trifluoromethyl)sulfanyl]phenyl}ethyl]-6-oxo-1,6-dihydro-2,2′-bipyrimidine-4-carboxamide]
–	–	6.3	2.2	COc1ccc(Cc2nc(C(=O)N[C@H](C)c3ccc(C(F)(F)F)cc3)cc(=O)[nH]2)cc1 [Example 136, 2-(4-methoxybenzyl)-6-oxo-N-{(1R)-1-[4-(trifluoromethyl)phenyl]ethyl}-1,6-dihydropyrimidine-4-carboxamide]
–	–	21	16	C[C@@H](NC(=O)c1cc(=O)[nH]c(C2CC2)n1)c1ccc(C(F)(F)F)cc1 [Example 11, 2-cyclopropyl-6-oxo-N-{(1R)-1-[4-(trifluoromethyl)phenyl]ethyl}-1,6-dihydropyrimidine-4-carboxamide]

Reference: US9815796B2 (Merck Sharp & Dohme Corp., priority 2013, dated 2017)
